Assay results from PubChem BioAssay (NCI).
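Each compound was tested at five concentrations against cells in 96-well plates for 48 hours. Here, GI50 denotes the concentration required for 50% inhibition of growth. TGI is the concentration that stops growth completely.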

Experiments:
Assay in all cases: NCI tumour cell line growth inhibition, 48 h; in the data active = GI50 below about 0.43 µM; inactive = the rest
[1] = test system: SF-268 CNS
[2] = test system: CCRF-CEM leukemia
[3] = test system: HOP-92 NSCLC
[4] = test system: MALME-3M melanoma
[5] = test system: SK-MEL-2 melanoma
[6] = test system: NCI/ADR-RES ovarian
[7] = test system: PC-3 prostate
[8] = test system: MDA-MB-231 breast
[9] = test system: HT29 colon
[10] = test system: HL-60(TB) leukemia
[11] = test system: NCI-H23 lung
[12] = test system: OVCAR-5 ovarian
[13] = test system: UO-31 renal
[14] = test system: UACC-257 melanoma
[15] = test system: OVCAR-3 ovarian
[16] = test system: A498 renal
[17] = test system: T-47D breast
[18] = test system: K-562 leukemia
[19] = test system: M14 melanoma
[20] = test system: SK-MEL-28 melanoma
[21] = test system: RPMI-8226 leukemia
[22] = test system: HOP-62 NSCLC
[23] = test system: NCI-H226 lung
[24] = test system: SNB-75 CNS
[25] = test system: SN12C renal
[26] = test system: HCT-116 colon
[27] = test system: TK-10 renal
[28] = test system: SF-295 CNS
[29] = test system: ACHN renal
[30] = test system: UACC-62 melanoma
[31] = test system: SR leukemia
[32] = test system: RXF 393 renal
[33] = test system: SNB-19 CNS
[34] = test system: HS 578T breast
[35] = test system: COLO 205 colon
[36] = test system: SF-539 CNS
[37] = test system: OVCAR-4 ovarian
[38] = test system: KM12 colon
[39] = test system: NCI-H522 lung
[40] = test system: OVCAR-8 ovarian
[41] = test system: MCF7 breast
[42] = test system: HCT-15 colon
[43] = test system: U251 CNS
[44] = test system: MDA-MB-435
[45] = test system: SK-OV-3 ovarian
[46] = test system: BT-549 breast
[47] = test system: A549 NSCLC
[48] = test system: 786-0 renal
[49] = test system: SK-MEL-5 melanoma
[50] = test system: HCC-2998 colon
[51] = test system: LOX IMVI melanoma
[52] = test system: EKVX NSCLC

CC(C)[C@]12O[C@H]1[C@@H]1O[C@]13[C@]1(O[C@H]1C[C@H]1C4=C(CC[C@@]13C)C(=O)OC4)[C@@H]2OC(=O)CN(C)C
74.8 nM: TGI [44]
48.3 nM: TGI [16]
72.4 nM: TGI [30]
37.3 nM: TGI [19]
> 100000 nM: TGI [6] | TGI [7] | TGI [8] | TGI [9] | TGI [12] | TGI [13] | TGI [17] | TGI [18] | TGI [21] | TGI [25] | TGI [26] | TGI [27] | TGI [28] | TGI [29] | TGI [33] | TGI [40] | TGI [41] | TGI [42] | TGI [43] | TGI [45] | TGI [48] | TGI [51] | TGI [52]
178 nM: TGI [23]
33.6 nM: TGI [32]
44 nM: TGI [50]
active: GI50 [1] 37 nM | GI50 [2] 31.5 nM | GI50 [3] 38.3 nM | GI50 [4] 19.3 nM | GI50 [5] 26.7 nM | GI50 [6] 48.1 nM | GI50 [7] 21.8 nM | GI50 [8] 57.8 nM | GI50 [9] 17.9 nM | GI50 [10] 15.3 nM | GI50 [11] 11.6 nM | GI50 [12] 49.1 nM | GI50 [13] 14.6 nM | GI50 [14] 17.5 nM | GI50 [15] 20.8 nM | GI50 [16] 16.1 nM | GI50 [17] 34 nM | GI50 [18] 28.3 nM | GI50 [19] 17 nM | GI50 [20] 20.7 nM | GI50 [21] 18.1 nM | GI50 [22] 31.4 nM | GI50 [23] 19.1 nM | GI50 [24] 28.6 nM | GI50 [25] 30.9 nM | GI50 [26] 12.8 nM | GI50 [27] 48 nM | GI50 [28] 77.7 nM | GI50 [29] 21 nM | GI50 [30] 22.8 nM | GI50 [31] 14.3 nM | GI50 [32] 15.7 nM | GI50 [33] 286 nM | GI50 [34] 22.7 nM | GI50 [35] 17 nM | GI50 [36] 41.1 nM | GI50 [37] 32.6 nM | GI50 [38] 208 nM | GI50 [39] 21.6 nM | GI50 [40] 33.6 nM | GI50 [41] 22 nM | GI50 [42] 29.1 nM | GI50 [43] 48.8 nM | GI50 [44] 17.6 nM | GI50 [45] 48.5 nM | GI50 [46] 18.4 nM | GI50 [47] 58.7 nM | GI50 [48] 32.6 nM | GI50 [49] 15.2 nM | GI50 [50] 10.2 nM | GI50 [51] 10.1 nM | GI50 [52] 110 nM
118 nM: TGI [10]
56.4 nM: TGI [46]
61.5 nM: TGI [20]
88.9 nM: TGI [34]
367 nM: TGI [1]
> 46200 nM: TGI [37]
110 nM: TGI [39]
2640 nM: TGI [38]
73.2 nM: TGI [5]
73.3 nM: TGI [4]
63.3 nM: TGI [15]
42.4 nM: TGI [35]
56.3 nM: TGI [14]
189 nM: TGI [31]
332 nM: TGI [36]
39.6 nM: TGI [49]
141 nM: TGI [24]
